Results reported in PMC9403976, “Elucidating the path to Plasmodium prolyl-tRNA synthetase inhibitors that overcome halofuginone resistance” (Nature Communications, 2022).
Where “and” joins values, the source holds several entries; their conditions need not be identical. Equal entries are not always repeated. Where two headings read alike, the source gives them in different places.

Legend:
[1] = system: P. falciparum Dd2-2D4; assay: P. falciparum asexual blood stage (ABS) growth assay, SYBR Green, 72 h, wild-type parasites; type: cell-based, Plasmodium falciparum; settings: for ABS growth dose-response, normalized signal (Replicates 1-3): Dd2-2D4
[2] = system: halofuginone-induced P. falciparum (elevated proline homeostasis); assay: P. falciparum ABS growth assay, SYBR Green, 72 h, halofuginone-induced parasites; type: cell-based, Plasmodium falciparum; settings: Halofuginone-Induced (HFG-Induced)
In short: (§1)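 Dd2-derived erythrocytic-stage parasites at 1% parasitemia and 1% hematocrit in RPMI + 0.5% Albumax were exposed to compounds in triplicate dose-response. Controls were 10 μM dihydroartemisinin (kill) and no-compound wells (growth). Growth was read by SYBR Green 1 fluorescence after 72 h and used to derive EC50.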

[3] = system: HFGR-I P. falciparum (elevated proline homeostasis and PfcProRS^L482H); assay: P. falciparum ABS growth assay, SYBR Green, 72 h, HFGR-I parasites; type: cell-based, Plasmodium falciparum; settings: HFGR-I
In short: as §1

[4] = molecular target: T1, PfcProRS (Plasmodium falciparum, UniProt Q8I5R7); type: binding; settings: for dose-response signal (normalized), SI Fig 8: single replicates
T1 construct: made in house; host or cells: E. coli SoluBL-21

[5] = molecular target: HsProRS (Homo sapiens, UniProt P07814); assay: TR-FRET ligand displacement assay with tracer MAT379 (CoraFluor-1-Halo and anti-His6 antibody formats); type: binding; design: made in house; host or cells: E. coli SoluBL-21; settings: for Kd: 250 nM MAT379; for TR-FRET dose-response, normalized signal (SI Fig 11): individual replicates
Sequence of HsProRS (P07814 996-1512): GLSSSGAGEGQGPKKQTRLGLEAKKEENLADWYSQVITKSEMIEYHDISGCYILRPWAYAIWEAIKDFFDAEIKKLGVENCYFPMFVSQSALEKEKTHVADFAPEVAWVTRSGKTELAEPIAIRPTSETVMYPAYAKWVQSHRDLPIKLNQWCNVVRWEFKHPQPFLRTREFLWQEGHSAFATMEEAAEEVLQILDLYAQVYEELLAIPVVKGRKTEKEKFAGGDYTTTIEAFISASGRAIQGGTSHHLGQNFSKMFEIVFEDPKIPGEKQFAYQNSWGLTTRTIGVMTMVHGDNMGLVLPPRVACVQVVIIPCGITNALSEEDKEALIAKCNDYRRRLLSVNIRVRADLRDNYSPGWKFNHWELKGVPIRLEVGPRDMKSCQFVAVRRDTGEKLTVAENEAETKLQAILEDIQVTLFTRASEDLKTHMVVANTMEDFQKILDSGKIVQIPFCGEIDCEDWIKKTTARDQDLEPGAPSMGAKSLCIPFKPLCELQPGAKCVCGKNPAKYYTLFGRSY

T1 sequence (Q8I5R7 249-746): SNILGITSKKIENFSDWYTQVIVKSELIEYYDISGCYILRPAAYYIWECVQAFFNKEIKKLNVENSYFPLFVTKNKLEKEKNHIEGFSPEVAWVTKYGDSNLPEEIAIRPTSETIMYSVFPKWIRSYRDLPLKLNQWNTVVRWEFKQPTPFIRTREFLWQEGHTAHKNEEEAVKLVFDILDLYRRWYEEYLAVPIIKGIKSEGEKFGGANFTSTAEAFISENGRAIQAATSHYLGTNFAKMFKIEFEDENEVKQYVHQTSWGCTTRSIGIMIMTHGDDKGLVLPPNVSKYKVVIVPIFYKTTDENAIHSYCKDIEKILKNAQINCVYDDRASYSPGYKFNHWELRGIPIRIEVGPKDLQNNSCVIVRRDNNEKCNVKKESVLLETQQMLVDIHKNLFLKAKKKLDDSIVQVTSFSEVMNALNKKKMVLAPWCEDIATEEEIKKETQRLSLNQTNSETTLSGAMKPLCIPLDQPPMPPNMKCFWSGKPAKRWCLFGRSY

## CC(C)(C)OC(=O)N[C@H]1CC[C@@H](C(=O)Nc2nccnc2C(=O)NC2Cc3ccccc3C2)CC1 [compound 6]
[1]; Log[inhibitor] (M) -4.699
  ABS growth dose-response, normalized signal (Replicates 1-3): 0
[1]; Log[inhibitor] (M) -5.301
  ABS growth dose-response, normalized signal (Replicates 1-3): 1
[1]; Log[inhibitor] (M) -5.903
  ABS growth dose-response, normalized signal (Replicates 1-3): 4
[1]; Plasmodium falciparum, DD2, SI Fig 16b, values on -log scale, read-out: ABS - Dd2-2D4 (converted)
  EC50: 508 nM
[2]; Log[inhibitor] (M) -5.000
  ABS growth dose-response, normalized signal (Replicates 1-3): 38 and 37 and 33
[2]; Log[inhibitor] (M) -5.301
  ABS growth dose-response, normalized signal (Replicates 1-3): 80 and 73 and 79
[2]; Log[inhibitor] (M) -5.602
  ABS growth dose-response, normalized signal (Replicates 1-3): 89 and 91 and 90
[2]; Log[inhibitor] (M) -5.903
  ABS growth dose-response, normalized signal (Replicates 1-3): 99 and 97 and 98
[2]; Log[inhibitor] (M) -6.204
  ABS growth dose-response, normalized signal (Replicates 1-3): 99 and 98 and 96
[2]; Log[inhibitor] (M) -6.505
  ABS growth dose-response, normalized signal (Replicates 1-3): 98 and 107 and 101
[2]; Log[inhibitor] (M) -6.806
  ABS growth dose-response, normalized signal (Replicates 1-3): 93 and 91 and 99
[2]; Log[inhibitor] (M) -7.107
  ABS growth dose-response, normalized signal (Replicates 1-3): 91 and 93 and 96
[2]; Log[inhibitor] (M) -7.408
  ABS growth dose-response, normalized signal (Replicates 1-3): 96 and 93 and 99
[2]; Log[inhibitor] (M) -7.709
  ABS growth dose-response, normalized signal (Replicates 1-3): 100 and 98 (2×)
[2]; Log[inhibitor] (M) -8.010
  ABS growth dose-response, normalized signal (Replicates 1-3): 99 (2×) and 97
[2]; Log[inhibitor] (M) -8.311
  ABS growth dose-response, normalized signal (Replicates 1-3): 98 and 97 and 96
[3]; Log[inhibitor] (M) -5.000
  ABS growth dose-response, normalized signal (Replicates 1-3): 30 and 31 and 35
[3]; Log[inhibitor] (M) -5.301
  ABS growth dose-response, normalized signal (Replicates 1-3): 64 and 68 and 70
[3]; Log[inhibitor] (M) -5.602
  ABS growth dose-response, normalized signal (Replicates 1-3): 83 (2×) and 82
[3]; Log[inhibitor] (M) -5.903
  ABS growth dose-response, normalized signal (Replicates 1-3): 92 and 97 and 94
[3]; Log[inhibitor] (M) -6.204
  ABS growth dose-response, normalized signal (Replicates 1-3): 105 and 106 and 108
[3]; Log[inhibitor] (M) -6.505
  ABS growth dose-response, normalized signal (Replicates 1-3): 108 (2×) and 110
[3]; Log[inhibitor] (M) -6.806
  ABS growth dose-response, normalized signal (Replicates 1-3): 85 and 90 (2×)
[3]; Log[inhibitor] (M) -7.107
  ABS growth dose-response, normalized signal (Replicates 1-3): 91 and 92 and 97
[3]; Log[inhibitor] (M) -7.408
  ABS growth dose-response, normalized signal (Replicates 1-3): 92 and 97 and 99
[3]; Log[inhibitor] (M) -7.709
  ABS growth dose-response, normalized signal (Replicates 1-3): 95 and 99 (2×)
[3]; Log[inhibitor] (M) -8.010
  ABS growth dose-response, normalized signal (Replicates 1-3): 107 and 102 and 97
[3]; Log[inhibitor] (M) -8.311
  ABS growth dose-response, normalized signal (Replicates 1-3): 104 and 108 and 101
[4]; Log[inhibitor] (M) -5.000
  dose-response signal (normalized), SI Fig 8: -1.61E-02 and -5.30E-02 and -3.81E-03
[4]; Log[inhibitor] (M) -5.301
  dose-response signal (normalized), SI Fig 8: -7.80E-02 and -1.87E-02 and -8.78E-02
[4]; Log[inhibitor] (M) -5.601
  dose-response signal (normalized), SI Fig 8: 1.78E-02 and -1.26E-02 and 5.92E-03
[4]; Log[inhibitor] (M) -5.904
  dose-response signal (normalized), SI Fig 8: 6.25E-02 and 5.05E-02 and 9.24E-02
[4]; Log[inhibitor] (M) -6.208
  dose-response signal (normalized), SI Fig 8: 5.23E-02 and 1.76E-01 and 1.80E-01
[4]; Log[inhibitor] (M) -6.509
  dose-response signal (normalized), SI Fig 8: 2.25E-01 and 2.68E-01 and 2.02E-01
[4]; Log[inhibitor] (M) -6.796
  dose-response signal (normalized), SI Fig 8: 4.96E-01 and 4.42E-01 and 4.81E-01
[4]; Log[inhibitor] (M) -7.108
  dose-response signal (normalized), SI Fig 8: 6.45E-01 and 6.22E-01 and 4.90E-01
[4]; Log[inhibitor] (M) -7.409
  dose-response signal (normalized), SI Fig 8: 7.15E-01 and 8.22E-01 and 8.32E-01
[4]; Log[inhibitor] (M) -7.710
  dose-response signal (normalized), SI Fig 8: 9.70E-01 and 9.04E-01 and 8.55E-01
[4]; Log[inhibitor] (M) -8.000
  dose-response signal (normalized), SI Fig 8: 8.78E-01 and 9.57E-01 and 8.94E-01
[4]; Log[inhibitor] (M) -8.301
  dose-response signal (normalized), SI Fig 8: 1.00E+00 and 9.97E-01 and 9.67E-01
[4]; Log[inhibitor] (M) -8.602
  dose-response signal (normalized), SI Fig 8: 1.06E+00 and 9.31E-01 and 1.01E+00
[4]; Log[inhibitor] (M) -9.000
  dose-response signal (normalized), SI Fig 8: 9.58E-01 and 9.81E-01 and 9.50E-01
[4]; Log[inhibitor] (M) -9.301
  dose-response signal (normalized), SI Fig 8: 1.01E+00 and 1.02E+00 and 9.51E-01
[4]; SI Fig 16a, values on -log scale
  PfcProRS -- best Kd: 7.580
[5]; HsProRS (KD [nM]) + proline, 100 μM proline
  Kd: 82.7 nM
[5]; HsProRS (KD [nM]) −, absence of substrates
  Kd: 56.8 nM
[5]; Log[inhibitor] (M) -5.000
  normalized TR-FRET ligand displacement signal, dose-response replicates (SI Fig 6): -9.02E-03 and -3.85E-02 and -4.81E-02
  TR-FRET dose-response, normalized signal (SI Fig 11): -2.98E-03 and 2.00E-02 and -3.48E-02
[5]; Log[inhibitor] (M) -5.301
  normalized TR-FRET ligand displacement signal, dose-response replicates (SI Fig 6): 1.39E-03 and -1.19E-02 and 6.50E-02
  TR-FRET dose-response, normalized signal (SI Fig 11): -9.84E-03 and -1.64E-02 and -3.17E-02
[5]; Log[inhibitor] (M) -5.601
  normalized TR-FRET ligand displacement signal, dose-response replicates (SI Fig 6): 3.06E-03 and 6.60E-02 and -6.88E-02
  TR-FRET dose-response, normalized signal (SI Fig 11): 1.87E-02 and 1.41E-03 and 1.94E-02
[5]; Log[inhibitor] (M) -5.904
  normalized TR-FRET ligand displacement signal, dose-response replicates (SI Fig 6): 1.31E-01 and 8.92E-02 and 1.65E-02
  TR-FRET dose-response, normalized signal (SI Fig 11): 4.76E-02 and 6.37E-02 and 6.71E-02
[5]; Log[inhibitor] (M) -6.208
  normalized TR-FRET ligand displacement signal, dose-response replicates (SI Fig 6): 8.21E-02 and 1.14E-01 and 9.74E-02
  TR-FRET dose-response, normalized signal (SI Fig 11): 1.11E-01 and 9.52E-02 and 8.68E-02
[5]; Log[inhibitor] (M) -6.509
  normalized TR-FRET ligand displacement signal, dose-response replicates (SI Fig 6): 3.32E-01 and 2.13E-01 and 2.09E-01
  TR-FRET dose-response, normalized signal (SI Fig 11): 1.70E-01 and 1.88E-01 and 1.94E-01
[5]; Log[inhibitor] (M) -6.796
  normalized TR-FRET ligand displacement signal, dose-response replicates (SI Fig 6): 3.90E-01 and 3.58E-01 and 4.40E-01
  TR-FRET dose-response, normalized signal (SI Fig 11): 3.16E-01 and 2.94E-01 and 3.43E-01
[5]; Log[inhibitor] (M) -7.108
  normalized TR-FRET ligand displacement signal, dose-response replicates (SI Fig 6): 6.29E-01 and 5.81E-01 and 6.23E-01
  TR-FRET dose-response, normalized signal (SI Fig 11): 5.24E-01 and 5.07E-01 and 4.16E-01
[5]; Log[inhibitor] (M) -7.409
  normalized TR-FRET ligand displacement signal, dose-response replicates (SI Fig 6): 7.27E-01 and 7.69E-01 and 8.30E-01
  TR-FRET dose-response, normalized signal (SI Fig 11): 6.04E-01 and 6.96E-01 and 6.63E-01
[5]; Log[inhibitor] (M) -7.710
  normalized TR-FRET ligand displacement signal, dose-response replicates (SI Fig 6): 8.52E-01 and 7.93E-01 and 9.04E-01
  TR-FRET dose-response, normalized signal (SI Fig 11): 7.36E-01 and 7.44E-01 and 7.53E-01
[5]; Log[inhibitor] (M) -8.000
  normalized TR-FRET ligand displacement signal, dose-response replicates (SI Fig 6): 8.26E-01 and 9.38E-01 and 9.73E-01
  TR-FRET dose-response, normalized signal (SI Fig 11): 8.98E-01 and 8.12E-01 and 7.76E-01
[5]; Log[inhibitor] (M) -8.301
  normalized TR-FRET ligand displacement signal, dose-response replicates (SI Fig 6): 9.79E-01 and 9.47E-01 and 1.01E+00
  TR-FRET dose-response, normalized signal (SI Fig 11): 8.89E-01 and 8.40E-01 and 9.15E-01
[5]; Log[inhibitor] (M) -8.602
  normalized TR-FRET ligand displacement signal, dose-response replicates (SI Fig 6): 9.42E-01 and 9.96E-01 and 9.03E-01
  TR-FRET dose-response, normalized signal (SI Fig 11): 9.56E-01 and 8.65E-01 and 9.25E-01
[5]; Log[inhibitor] (M) -9.000
  normalized TR-FRET ligand displacement signal, dose-response replicates (SI Fig 6): 9.97E-01 and 9.50E-01 and 8.98E-01
  TR-FRET dose-response, normalized signal (SI Fig 11): 9.29E-01 and 9.09E-01 and 9.22E-01
[5]; Log[inhibitor] (M) -9.301
  normalized TR-FRET ligand displacement signal, dose-response replicates (SI Fig 6): 1.05E+00 and 9.90E-01 and 1.06E+00
  TR-FRET dose-response, normalized signal (SI Fig 11): 9.30E-01 and 9.49E-01 and 9.75E-01
